Patent US8124605B2, “Compositions and methods for modulating a kinase cascade” (Kinex Pharmaceuticals, LLC, priority 2007, dated 2012)

Tests used:
Assay type in all cases: cell-based
JAK3 = molecular target: T1, JAK3 (Homo sapiens, UniProt P52333); assay: JAK phosphorylation/activation by flow cytometry, pSTAT5 staining in IL-4 stimulated U-937 cells; details: drug 30 min, then IL-4
T1 construct: U-937 cells, histiocytic lymphoma cell line; endogenous in cells; host or cells: U-937 (ATCC CRL-1593.2)
T1 sequence (P52333 1-1124): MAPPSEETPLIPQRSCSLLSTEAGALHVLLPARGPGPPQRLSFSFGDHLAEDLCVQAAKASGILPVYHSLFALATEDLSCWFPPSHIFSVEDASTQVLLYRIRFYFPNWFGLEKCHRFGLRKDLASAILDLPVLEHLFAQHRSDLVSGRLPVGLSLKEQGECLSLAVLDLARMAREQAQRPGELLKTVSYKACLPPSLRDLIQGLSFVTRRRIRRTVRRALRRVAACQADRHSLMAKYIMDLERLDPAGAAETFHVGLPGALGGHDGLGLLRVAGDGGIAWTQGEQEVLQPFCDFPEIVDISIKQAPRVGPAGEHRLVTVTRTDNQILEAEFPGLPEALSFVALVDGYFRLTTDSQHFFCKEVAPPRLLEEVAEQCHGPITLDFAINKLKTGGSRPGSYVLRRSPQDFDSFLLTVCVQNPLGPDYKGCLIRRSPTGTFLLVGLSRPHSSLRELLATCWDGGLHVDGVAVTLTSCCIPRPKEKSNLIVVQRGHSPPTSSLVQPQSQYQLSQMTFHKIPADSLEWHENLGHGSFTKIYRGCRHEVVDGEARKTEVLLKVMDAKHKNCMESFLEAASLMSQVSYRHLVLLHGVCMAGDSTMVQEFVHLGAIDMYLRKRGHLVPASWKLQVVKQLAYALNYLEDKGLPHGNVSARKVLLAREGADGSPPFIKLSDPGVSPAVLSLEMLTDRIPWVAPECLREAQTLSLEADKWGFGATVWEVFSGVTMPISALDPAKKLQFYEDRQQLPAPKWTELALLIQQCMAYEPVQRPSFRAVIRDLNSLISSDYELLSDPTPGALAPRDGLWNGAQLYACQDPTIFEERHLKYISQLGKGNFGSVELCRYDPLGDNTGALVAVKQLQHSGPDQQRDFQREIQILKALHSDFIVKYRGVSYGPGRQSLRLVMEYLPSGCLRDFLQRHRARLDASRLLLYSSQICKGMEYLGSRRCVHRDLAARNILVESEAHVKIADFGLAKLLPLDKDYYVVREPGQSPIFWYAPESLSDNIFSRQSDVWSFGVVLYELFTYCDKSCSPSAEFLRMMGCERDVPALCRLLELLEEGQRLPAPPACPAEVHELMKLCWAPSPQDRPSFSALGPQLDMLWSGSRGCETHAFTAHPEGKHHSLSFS
Experimental: (§1) The protocol used to analyze the effect of compounds of the invention on JAK phosphorylation/activation is adapted from: Krutzik and Nolan, Cytometry Part A 55A:61-70 (2003).
(§2) Briefly, U-937 cells, histiocytic lymphoma cell line; ATCC No. CRL-1593.2, were treated with compounds of the invention or commercial JAK inhibitors. Cells were then stimulated with IL-4, to engage the JAK/STAT signaling pathway. Cells were fixed with formaldehyde to “freeze” the phosphorylation states of intracellular proteins. Cells were next permeabilized, and stained with mAbs directed against the phosphorylated STAT (pSTAT) proteins. The positive shift in fluorescence due to pSTAT staining serves as a surrogate to JAK phosphorylation/activation: no flow cytometric mAbs specific to JAKs exist, so the proximal downstream signaling event, STAT phosphorylation, is measured. A decrease in fluorescence, due to drug incubation prior to IL-4 stimulation, is an indirect indication of JAK inhibition. The following antibodies were used: apSTAT5-PE: monoclonal antibody to the intracellular STAT5a protein phosphorylated at Tyrosine 694; conjugated to the fluorochrome phycoerythrin (PE); BD No. 612567 and apSTAT6-Alex647: monoclonal antibody to the intracellular STAT6 protein phosphorylated at Tyrosine 641; conjugated to the fluorochrome Alexa Fluor 647; BD No. 612601. The detailed protocol is described below:
(§3) Resuspend U-937 cells @ 8×10^5 cells/mL in complete culture medium (RPMI-1640/10% FBS).
(§4) Add 0.5 mL cell suspension to each well of 24-well tissue culture plate.
(§5) Add drug treatment (compounds, controls) for 30 min @ 37° C., 5% CO2.
(§6) Add cytokine/growth factor to stimulate; 15-30 min @ 37° C. (1 μL/0.5 mL cell suspension; IL-4, IL-2, IL-15=20 ng/mL)
(§7) Transfer cells to 5 mL Flow tubes.
(§8) Add 16% Formaldehyde directly to cell culture to obtain final concentration of 1.5% formaldehyde. (47 μL formaldehyde+0.5 mL cell culture)
(§9) Incubate cells in fixative for 15 min @ 37° C., 5% CO2.
(§10) Add 3 mL cold “Staining Media” (PBS/1% BSA) to each tube; centrifuge cells @ 1100 RPM, 3 min. Discard supernatant.
(§11) Resuspend cells with vigorous vortexing in 200 μL ice-cold Methanol.
(§12) Incubate cells on ice, 30 min.
(§13) Wash cells twice in 2 mL “Staining Medium” (centrifuge cells @ 1100 RPM, 3 min). Discard supernatant.
(§14) Add 8 μL of fluorophore-conjugated, phosphoprotein-specific mAbs to cells. Incubate cells at RT, 60 min, in the dark.
(§15) Wash cells with 4 mL Staining Media. Centrifuge cells @ 1100 RPM, 3 min. Discard supernatant.
(§16) Resuspend cells in 350 μL Staining Media.
(§17) Acquire cellular events on BD FACSCalibur cytometer.

[1] = test system: human colon tumor cell line HT-29; assay: Cell proliferation assay (MTT assay), GI50; details: HT-29, 72 h, 3 days incubation, read-out: GI50 HT29
Experimental: (§18) The GI50s for several of the compounds of the invention are assayed as described herein.
(§19) Cell line and culture media—the human colon tumor cell line HT-29 was obtained from Dr. Irwin Gelman (Roswell Park Cancer Institute, Buffalo, N.Y.) and maintained in McCoy's 5A medium supplemented with 2% fetal bovine serum and penicillin-streptomycin. SYF/c-Src527F cell line was also obtained from Dr. Irwin Gelman and maintained in Dulbecco's modified Eagle's medium (DMEM) supplemented with 2% bovine serum and penicillin-streptomycin. Both cell lines were incubated in an atmosphere containing 5% CO2 at 37° C.
(§20) Cell proliferation assay (MTT assay)-HT-29 (7,000 cells) and SYF/c-Src527F (4,000 cells) cells were plated in 120 μl of culture medium per well of 96-well plate. Cells were incubated overnight before drug treatment. Test compounds were diluted in culture medium in a separate 96-well plate to yield 10× concentrations of test dose (50 nM, 500 nM, 5 μM, 50 μM, and 500 μM). 13.3 μl of the 10× compound was added to each well of cells to achieve the final test concentrations (5 nM, 50 nM, 500 nM, 5 μM and 50 μM). After 3 days incubation, 10 μl of MTT (Thiazolyl Blue Tetrazolium Bromide, 5 mg/ml in PBS) was added to each well and incubate for 3 hours at 37° C. After removal of culture medium, 100 μl of isopropanol containing 40 mM HCl was added to each well and incubate for 10 minutes on a shaker to dissolve the MTT formazan. Optical density (OD) at 570 nm was then measured using microplate reader and cell growth inhibition (percentage of growth) by each concentration of drug was calculated as: % growth=100×[(T−T0)/(C−T0)] (T: OD of the test well exposure to test drug; C: OD of the control well without drug treatment; T0: OD at time zero). Growth inhibition curves and GI50 were determined using GraphPad Prism 5 statistical software.

SYF/c-Src527F cell line = assay: Cell proliferation assay (MTT assay), GI50; details: Mus musculus, 72 h, 3 days incubation
Experimental: as §18, §19, §20

JAK1 = molecular target: T2, JAK1 (Homo sapiens, UniProt P23458); assay: JAK phosphorylation/activation by flow cytometry, pSTAT6 staining in IL-4 stimulated U-937 cells; details: drug 30 min, then IL-4
T2 construct: U-937 cells, histiocytic lymphoma cell line; endogenous in cells; host or cells: U-937 (ATCC CRL-1593.2)
T2 sequence (P23458 whole entry): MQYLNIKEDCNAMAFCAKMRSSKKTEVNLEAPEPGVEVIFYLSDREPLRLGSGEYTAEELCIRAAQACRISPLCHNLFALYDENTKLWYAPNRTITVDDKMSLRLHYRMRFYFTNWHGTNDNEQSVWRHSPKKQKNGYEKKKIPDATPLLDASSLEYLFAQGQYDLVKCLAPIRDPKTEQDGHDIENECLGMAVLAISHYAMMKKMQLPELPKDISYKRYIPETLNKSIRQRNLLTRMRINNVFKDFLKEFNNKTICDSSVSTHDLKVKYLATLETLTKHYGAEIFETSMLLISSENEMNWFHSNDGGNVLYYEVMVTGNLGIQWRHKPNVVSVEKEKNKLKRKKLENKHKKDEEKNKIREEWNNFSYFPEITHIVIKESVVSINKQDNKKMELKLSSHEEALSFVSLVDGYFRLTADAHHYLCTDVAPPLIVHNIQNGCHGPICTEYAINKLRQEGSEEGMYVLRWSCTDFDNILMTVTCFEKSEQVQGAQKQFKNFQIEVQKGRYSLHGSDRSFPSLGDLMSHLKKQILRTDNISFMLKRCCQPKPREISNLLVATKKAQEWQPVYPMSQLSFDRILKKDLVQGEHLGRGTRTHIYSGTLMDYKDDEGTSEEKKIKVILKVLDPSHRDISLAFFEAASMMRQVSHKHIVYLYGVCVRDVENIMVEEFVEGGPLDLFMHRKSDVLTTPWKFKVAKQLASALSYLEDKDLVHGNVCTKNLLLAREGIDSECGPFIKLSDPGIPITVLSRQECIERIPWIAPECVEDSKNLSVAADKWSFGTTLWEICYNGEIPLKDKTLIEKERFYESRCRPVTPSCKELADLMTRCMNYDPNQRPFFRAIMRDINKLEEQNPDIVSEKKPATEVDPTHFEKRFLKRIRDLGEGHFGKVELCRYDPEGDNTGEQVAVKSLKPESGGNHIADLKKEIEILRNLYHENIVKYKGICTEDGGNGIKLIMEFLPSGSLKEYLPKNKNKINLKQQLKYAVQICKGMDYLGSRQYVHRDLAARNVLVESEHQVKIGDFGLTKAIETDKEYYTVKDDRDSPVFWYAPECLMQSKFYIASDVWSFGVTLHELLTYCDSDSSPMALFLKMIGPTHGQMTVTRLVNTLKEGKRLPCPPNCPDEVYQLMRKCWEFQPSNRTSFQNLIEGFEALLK
Experimental: as §1, §2, §3, §4, §5, §6, §7, §8, §9, §10, §11, §12, §13, §14, §15, §16, §17

Compound | JAK3 pStat5-PE Signal (JAK3) | JAK3 pStat5-PE Signal/Background (JAK3) | GI50 [1] | GI50 (SYF/c-Src527F cell line) | JAK1 pStat6-Alexa647 Signal (JAK1) | JAK1 pStat6-Alexa647 Signal/Background (JAK1)
O=C(Cc1ccccc1)NCc1ccc(-c2ccccc2)cn1 [Compound 140] | 3.02 | 1.14 | 2.1 µM | 11.8 µM | 13.76 | 3.62
O=C(CCc1ccccc1)Cc1ccc(-c2ccccc2)cn1 [Compound 150] | 3.36 | 1.27 | 5.7 µM | 20.8 µM | 14.48 | 3.81
O=C(Cc1ccccc1)NCc1ccc(OCc2ccccc2)cc1 [Compound 163] | 3.24 | 1.22 | 62.9 µM | 275 µM | 15.35 | 4.04
